Assay results from ChEMBL document CHEMBL4270499, “Recent discoveries of anticancer flavonoids” (Eur J Med Chem, 2017).
≈ marks a conversion by molar mass, not a printed value.

Assays:
[1] = system: CCRF-CEM; assay: Cytotoxicity in human CCRF-CEM cells by resazurin reduction assay; assay type: functional, cell-based
[2] = system: K562; assay: Cytotoxicity in human K562 cells by SRB assay; assay type: functional, cell-based
[3] = system: K562; assay: Cytotoxicity in human K562 cells after 24 hrs by trypan blue exclusion assay; assay type: functional, cell-based; settings: K562, 24 h
[4] = Inhibition of nuclear factor-kappa-B (unknown origin) expressed in human K562 cells pre-incubated for 2 hrs followed by TNFalpha stimulation for 6 hrs by luciferase reporter gene assay; assay type: cell-based
[5] = system: Caco-2; assay: Cytotoxicity in human Caco2 cells after 72 hrs by MTT assay; assay type: functional, cell-based; settings: Caco-2, 72 h
[6] = system: A-375; assay: Cytotoxicity in human A375 cells; assay type: functional, cell-based

For COc1cc(O)c(OC)c(O)c1C(=O)/C=C/c1ccccc1, the IC50 [1] was ≤ 10 µM.
For C[C@@H]1O[C@@H](Oc2c(-c3cc(O)c(O)c(O)c3)oc3cc(O)cc(O)c3c2=O)[C@H](O)[C@H](OC(=O)c2cc(O)c(O)c(O)c2)[C@H]1O, the IC50 [2] was 30.5 µg/mL.
In the case of COc1cc(O)cc(OC)c1C(=O)/C=C/c1ccccc1, the IC50 [1] is reported as ≤ 10 µM.
With CC1=Cc2c(C(C)C)ccc(C)c2C(=O)C1=O the IC50 [2] was 1.45 µM.
Compound C[C@H]1O[C@H](Oc2c(-c3ccc(O)cc3)oc3cc(O)cc(O)c3c2=O)[C@@H](O)[C@@H](O)[C@@H]1O (single isomer, unassigned) [KAEMPFEROL-3-O-RHAMNOSIDE] has an IC50 [3] of 15.2 µM and an IC50 [4] of 4.1 µM.
For COc1cc(O)cc(O)c1C(=O)/C=C/c1ccccc1 [CARDAMOMIN], the IC50 [1] was ≤ 10 µM.
Compound O=c1cc(-c2ccccc2)oc2cc(O)cc(O)c12 [CHRYSIN] has an IC50 [5] of 9.5 µM.
In the case of O=c1cc(-c2ccccc2)oc2ccccc12 [FLAVONE], the IC50 [5] is reported as 21 µM.
O=c1c(O)c(-c2ccccc2)oc2ccccc12 [FLAVONOL] showed an IC50 [5] of 42.1 µM.
Work on O=c1[nH]cc(F)c(=O)[nH]1 [FLUOROURACIL] yielded an IC50 [5] of 60 µM.
With O=C1c2ccc(O)cc2O[C@H](c2ccc(O)c(O)c2)[C@H]1O [FUSTIN] the IC50 [2] was > 100 µg/mL.
Compound COc1ccc([C@@H]2CC(=O)c3c(O)cc(O)cc3O2)cc1O [HESPERETIN] has an IC50 [5] of 66.7 µM.
In the case of O=c1c(O)c(-c2ccc(O)cc2)oc2cc(O)cc(O)c12 [KAEMPFEROL], the IC50 [6] is reported as 0.012 µg/mL (≈ 0.0421 µM).
With O=c1c(O)c(-c2ccc(O)c(O)c2)oc2cc(O)cc(O)c12 [QUERCETIN] the IC50 [6] was 0.00154 µg/mL (≈ 0.0051 µM).
